pIC50: −log10 of the molar value.
What follows are compounds tested against Human eIF4E (Homo sapiens (Human), UniProt P06730) (assay: Human eIF4E/4G binding assay (time-resolved fluorescence, HH-eIF4E and biotin-labeled 4G2 peptide)). Conditions: inhibition of binding of His-tagged human eIF4E (aa 28-217) to biotin-labeled 4G2 peptide.
Procedure: The protein was solubilized with 8 M urea and purified under denaturing conditions using nickel-charged HisTrap HP columns (GE Healthcare). The protein was refolded by diluting to approximately 0.25 mg/mL with 6 M urea, 20 mM Hepes pH 7.0, 500 mM NaCl, 1 mM DTT, 1 mM EDTA, and 0.5 M arginine.HCl, and then dialyzing overnight into the same buffer without the urea. The protein was further dialyzed into 20 mM Hepes pH 6.5, 50 mM NaCl, 1 mM EDTA, and 1 mM DTT, filtered, and then concentrated using Hitrap SP sepharose FF columns (GE Healthcare). The protein was dialyzed into 20 mM Hepes pH 7.0, 500 mM NaCl, 5 mM DTT, and 10% glycerol and stored at −80° C. until use. Test compounds (1.6 mM stock in DMSO) were diluted 3 fold in series in DMSO. Compound solutions were diluted 4 fold in Assay Buffer (50 mM sodium phosphate, pH 6.5, 50 mM KCl, 1 mM DTT and 0.5 mg/mL gammaglobulin). […] The samples were incubated at room temperature for 20 minutes. […] IC50 values were calculated using Condoseo software (Genedata AG).

Human eIF4E, sequence (P06730 28-217): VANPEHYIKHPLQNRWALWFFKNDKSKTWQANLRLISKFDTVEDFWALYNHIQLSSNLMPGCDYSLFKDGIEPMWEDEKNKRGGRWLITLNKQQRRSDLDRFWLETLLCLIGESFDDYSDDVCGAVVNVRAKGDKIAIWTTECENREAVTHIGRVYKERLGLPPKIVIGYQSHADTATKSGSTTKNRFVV

CN(C)CCCNC(=O)c1ccc(-c2ccc(-c3nc(-c4ccc(Cl)c(Cl)c4)cs3)cc2C(=O)O)cc1 [Example 48, 4-[4-(3,4-Dichloro-phenyl)-thiazol-2-yl]-4′-(3-dimethylamino-propylcarbamoyl)-biphenyl-2-carboxylic acid] and O=C(NCCCN1CCOCC1)c1ccc(-c2ccc(-c3nc(-c4ccc(Cl)c(Cl)c4)cs3)cc2C(=O)O)cc1 [Example 58, 4-[4-(3,4-Dichloro-phenyl)-thiazol-2-yl]-4′-(3-morpholin-4-yl-propylcarbamoyl)-biphenyl-2-carboxylic acid] cannot be ordered by pIC50: under 4.10 for the first, under 4.10 for the second.

Compared with O=C(O)c1cc(-c2nc(-c3ccc(Cl)c(Cl)c3)cs2)ccc1-c1ccccc1[N+](=O)[O-] [Example 16, 4-[4-(3,4-Dichloro-phenyl)-thiazol-2-yl]-2′-nitro-biphenyl-2-carboxylic acid], O=C(O)c1cc(-c2nc(-c3ccc(Cl)cc3)cs2)ccc1-c1ccccc1[N+](=O)[O-] [Example 13, 4-[4-(4-Chloro-phenyl)-thiazol-2-yl]-2′-nitro-biphenyl-2-carboxylic acid] is 1.02 log units lower in pIC50: 6.30 for the first, 5.28 for the second.

First: O=C(O)c1cc(-c2nc(-c3ccc(Cl)c(Cl)c3)cs2)ccc1-c1cc(OC(F)(F)F)ccc1Cl [Example 88, 2′-Chloro-4-[4-(3,4-dichloro-phenyl)-thiazol-2-yl]-5′-trifluoromethoxy-biphenyl-2-carboxylic acid]
Second: O=C(O)c1cc(-c2nc(-c3ccc(Cl)c(Cl)c3)cs2)ccc1-c1ccc(C(F)(F)F)cc1Cl [Example 127, 2′-Chloro-4-[4-(3,4-dichloro-phenyl)-thiazol-2-yl]-4′-trifluoromethyl-biphenyl-2-carboxylic acid]
The pIC50 of the first is 0.42 log units higher: 6.22 for the first, 5.80 for the second. The first is the more potent here.

O=C(O)c1cc(-c2nc(-c3ccc(Cl)c(Cl)c3)cs2)ccc1-c1cccc([N+](=O)[O-])c1 [Example 46, 4-[4-(3,4-Dichloro-phenyl)-thiazol-2-yl]-3′-nitro-biphenyl-2-carboxylic acid] and COc1cccc(-c2ccc(-c3nc(-c4ccc(Cl)c(Cl)c4)cs3)cc2C(=O)O)c1 [Example 91, 4-[4-(3,4-Dichloro-phenyl)-thiazol-2-yl]-3′-methoxy-biphenyl-2-carboxylic acid] are within 0.2 log units of each other in pIC50: 5.42 for the first, 5.30 for the second.

O=C(NCc1cccc(F)c1)c1ccc(-c2ccc(-c3nc(-c4ccc(Cl)c(Cl)c4)cs3)cc2C(=O)O)cc1 [Example 73, 4-[4-(3,4-Dichloro-phenyl)-thiazol-2-yl]-4′-(3-fluoro-benzylcarbamoyl)-biphenyl-2-carboxylic acid] and COc1ccc(CNC(=O)c2ccc(-c3ccc(-c4nc(-c5ccc(Cl)c(Cl)c5)cs4)cc3C(=O)O)cc2)cc1 [Example 64, 4-[4-(3,4-Dichloro-phenyl)-thiazol-2-yl]-4′-(4-methoxy-benzylcarbamoyl)-biphenyl-2-carboxylic acid] are within 0.2 log units of each other in pIC50: 5.68 for the first, 5.70 for the second.

O=C(NCCc1cccnc1)c1ccc(-c2ccc(-c3nc(-c4ccc(Cl)c(Cl)c4)cs3)cc2C(=O)O)cc1 [Example 66, 4-[4-(3,4-Dichloro-phenyl)-thiazol-2-yl]-4′-(2-pyridin-3-yl-ethylcarbamoyl)-biphenyl-2-carboxylic acid] and O=C(NC1CCOC1)c1ccc(-c2ccc(-c3nc(-c4ccc(Cl)c(Cl)c4)cs3)cc2C(=O)O)cc1 (stereo not shown) [Example 62, 4-[4-(3,4-Dichloro-phenyl)-thiazol-2-yl]-4′-(tetrahydro-furan-3-ylcarbamoyl)-biphenyl-2-carboxylic acid] are within 0.2 log units of each other in pIC50: 5.02 for the first, 5.11 for the second.

O=C(O)c1cc(-c2nc(-c3ccc(Cl)c(Cl)c3)cs2)ccc1-c1ccc(Cl)cc1 [Example 147, 4′-Chloro-4-[4-(3,4-dichloro-phenyl)-thiazol-2-yl]-biphenyl-2-carboxylic acid] and N#Cc1ccc(Cl)cc1-c1ccc(-c2nc(-c3ccc(Cl)c(Cl)c3)cs2)cc1C(=O)O [Example 110, 5′-Chloro-2′-cyano-4-[4-(3,4-dichloro-phenyl)-thiazol-2-yl]-biphenyl-2-carboxylic acid] are the same in pIC50: 5.77 for the first, 5.77 for the second.

O=C(O)c1cc(-c2nc(-c3ccc(Cl)c(Cl)c3)cs2)ccc1-c1ccc(C(F)(F)F)cc1C(F)(F)F [Example 125, 4-[4-(3,4-Dichloro-phenyl)-thiazol-2-yl]-2′,4′-bis-trifluoromethyl-biphenyl-2-carboxylic acid] and O=C(O)c1cc(-c2nc(-c3ccc(Cl)c(Cl)c3)cs2)ccc1-c1cccc(C(F)(F)F)c1Cl [Example 126, 2′-Chloro-4-[4-(3,4-dichloro-phenyl)-thiazol-2-yl]-3′-trifluoromethyl-biphenyl-2-carboxylic acid] are within 0.2 log units of each other in pIC50: 5.52 for the first, 5.55 for the second.

Going from Cc1cc(C(N)=O)ccc1-c1ccc(-c2nc(-c3ccc(Cl)c(Cl)c3)cs2)cc1C(=O)O [Example 78, 4′-Carbamoyl-4-[4-(3,4-dichloro-phenyl)-thiazol-2-yl]-2′-methyl-biphenyl-2-carboxylic acid] to NC(=O)c1ccc(Cl)c(-c2ccc(-c3nc(-c4ccc(Cl)c(Cl)c4)cs3)cc2C(=O)O)c1 [Example 109, 5′-Carbamoyl-2′-chloro-4-[4-(3,4-dichloro-phenyl)-thiazol-2-yl]-biphenyl-2-carboxylic acid], the pIC50 falls from 5.72 to 5.43 (0.29 log units).

Going from O=C(O)c1cc(-c2nc(-c3cccc(C(F)(F)F)c3)cs2)ccc1-c1ccccc1[N+](=O)[O-] [Example 6, 2′-Nitro-4-[4-(3-trifluoromethyl-phenyl)-thiazol-2-yl]-biphenyl-2-carboxylic acid] to O=C(O)c1cc(-c2nc(-c3cccc(Br)c3)cs2)ccc1-c1ccccc1[N+](=O)[O-] [Example 26, 4-[4-(3-Bromo-phenyl)-thiazol-2-yl]-2′-nitro-biphenyl-2-carboxylic acid], the pIC50 rises from 5.08 to 5.52 (0.44 log units). The second is the more potent here.

Going from O=C(O)c1cc(-c2nc(-c3ccc(Cl)c(Cl)c3)cs2)ccc1-c1cc(F)ccc1F [Example 131, 4-[4-(3,4-Dichloro-phenyl)-thiazol-2-yl]-2′,5′-difluoro-biphenyl-2-carboxylic acid] to O=C(O)c1cc(-c2nc(-c3ccc(Cl)c(Cl)c3)cs2)ccc1-c1ccc(F)cc1F [Example 132, 4-[4-(3,4-Dichloro-phenyl)-thiazol-2-yl]-2′,4′-difluoro-biphenyl-2-carboxylic acid], the pIC50 falls from 5.74 to 5.25 (0.49 log units). The first is the more potent here.

Compared with O=C(O)c1cc(-c2nc(-c3ccccc3C(F)(F)F)cs2)ccc1-c1ccccc1[N+](=O)[O-] [Example 5, 2′-Nitro-4-[4-(2-trifluoromethyl-phenyl)-thiazol-2-yl]-biphenyl-2-carboxylic acid], O=C(O)c1cc(-c2nc(-c3c(F)cccc3F)cs2)ccc1-c1ccccc1[N+](=O)[O-] [Example 20, 4-[4-(2,6-Difluoro-phenyl)-thiazol-2-yl]-2′-nitro-biphenyl-2-carboxylic acid] is lower in pIC50: 4.64 for the first, under 4.10 for the second.

Going from O=C(O)c1cc(-c2nc(-c3ccncc3)cs2)ccc1-c1ccccc1[N+](=O)[O-] [Example 39, 2′-Nitro-4-(4-pyridin-4-yl-thiazol-2-yl)-biphenyl-2-carboxylic acid] to O=C(O)c1cc(-c2nc(-c3ccc(Cl)c(Cl)c3)cs2)ccc1-c1ccccc1[N+](=O)[O-] [Example 15, 4-[4-(3,4-Dichloro-phenyl)-thiazol-2-yl]-2′-nitro-biphenyl-2-carboxylic acid], the pIC50 rises from under 4.10 to 5.55.

First: Cc1ncccc1-c1ccc(-c2nc(-c3ccc(Cl)c(Cl)c3)cs2)cc1C(=O)O [Example 98, 5-[4-(3,4-Dichloro-phenyl)-thiazol-2-yl]-2-(2-methyl-pyridin-3-yl)-benzoic acid]
Second: Cc1ccc(Cl)c(-c2ccc(-c3nc(-c4ccc(Cl)c(Cl)c4)cs3)cc2C(=O)O)c1 [Example 144, 2′-Chloro-4-[4-(3,4-dichloro-phenyl)-thiazol-2-yl]-5′-methyl-biphenyl-2-carboxylic acid]
The pIC50 of the first is 0.56 log units lower: 5.40 for the first, 5.96 for the second. The second is the more potent here.

Compared with O=C(O)c1cc(-c2nc(-c3ccc(Cl)c(Cl)c3)cs2)ccc1-c1cc(Cl)cc(Cl)c1Cl [Example 149, 2′,3′,5′-Trichloro-4-[4-(3,4-dichloro-phenyl)-thiazol-2-yl]-biphenyl-2-carboxylic acid], Cc1ccc(F)c(-c2ccc(-c3nc(-c4ccc(Cl)c(Cl)c4)cs3)cc2C(=O)O)c1Cl [Example 139, 2′-Chloro-4-[4-(3,4-dichloro-phenyl)-thiazol-2-yl]-6′-fluoro-3′-methyl-biphenyl-2-carboxylic acid] is higher in pIC50: under 4.10 for the first, 5.80 for the second.

COc1cccc(-c2ccc(-c3nc(-c4ccc(Cl)c(Cl)c4)cs3)cc2C(=O)O)n1 [Example 85, 5-[4-(3,4-Dichloro-phenyl)-thiazol-2-yl]-2-(6-methoxy-pyridin-2-yl)-benzoic acid] and COc1ncc(-c2ccc(-c3nc(-c4ccc(Cl)c(Cl)c4)cs3)cc2C(=O)O)cn1 [Example 83, 5-[4-(3,4-Dichloro-phenyl)-thiazol-2-yl]-2-(2-methoxy-pyrimidin-5-yl)-benzoic acid] are within 0.2 log units of each other in pIC50: 5.01 for the first, 4.85 for the second.

O=C(O)c1cc(-c2nc(-c3ccc(Cl)c(Cl)c3)cs2)ccc1-c1cnc(O)nc1 [Example 84, 5-[4-(3,4-Dichloro-phenyl)-thiazol-2-yl]-2-(2-hydroxy-pyrimidin-5-yl)-benzoic acid] and CC(=O)c1ccc(Cl)c(-c2ccc(-c3nc(-c4ccc(Cl)c(Cl)c4)cs3)cc2C(=O)O)c1 [Example 118, 5′-Acetyl-2′-chloro-4-[4-(3,4-dichloro-phenyl)-thiazol-2-yl]-biphenyl-2-carboxylic acid] are within 0.2 log units of each other in pIC50: 5.92 for the first, 5.82 for the second.

Source: patent publication US9073881B2, “Benzoic acid derivatives” (HOFFMANN-LA ROCHE INC., priority 2011, dated 2015)
